Measured values taken from patent US9968602B2, “Modulation of cell fates and activities by phthalazinediones” (Bach Pharma, Inc., priority 2002, dated 2018).

How the values were obtained:
MOMU-LV-Ts1 virus = assay: Movement disorder with paralysis induced by MOMU-LV-Ts1 virus in mice; format: in vivo; details: daily intraperitoneal injections of 200 μg
Source text: In mice infected at 2 days of age with the Ts1 virus, hind limb paralysis occurs with severe wasting, especially of immune organs. In humans infected with HIV, severe immune deficiency with sensory and motor neuropathy also results. In these wasting syndromes with disordered life and death pathways in various cells, some therapeutic attempts with thiol redox modulators other than amino phthalazinediones have been partially successful (Lynn and Wong, NeuroImmunomodulation 4: 277-284, 1997; Yan et al., FASEB J. 15: 1132-1138, 2001). In these studies, phthalazinediones plus thiol redox modulators appear to be sufficient to maintain survival and an adequate intracellular thiol redox potential in brain and in thymus.
Since maintaining this excessive and imbalanced 4 Hz oscillation requires increased […] expenditures, agents such as amino phthalazinediones, which can modulate thiol redox status, downregulate mitochondrial energy production, and gain access to the overactivated STN neurons, can potentially suppress the 4 Hz overactivity and thereby suppress and modulate the downstream network activities responsible for the symptoms. […] Whether this is due to suppression of oscillatory activity in neurons, suppression of virus-induced astrocytic inflammatory responses, or both is under investigation. […]

[1] = test system: mitochondrial transmembrane pores; details: cited from earlier work
ATM-deficient mice = assay: Thymic tumor formation and premature degeneration in ATM-deficient mice; format: in vivo; details: ATM deficiency
Source text: In regulatory gene-dependent syndromes of premature aging, including ataxia telangiectasia, Down syndrome, trichothiodystrophy, Bloom's disease, p53 over-activity (De Boer et al., Science 296: 1276-1281, 2002; Tyner et al., Nature 415: 45-50, 2002), in which life and death of specific cell types are aberrant, appropriate treatments in vitro and in vivo with thiol redox modulators have been partially successful.
Other thiol redox modulators, such as N-acetyl cysteine and dehydrolipoic acid, also delay the premature degeneration of cells and the thymomas. Thiol redox modulators also correct the delayed differentiation and excessive production of DNA in ATM-deficient lymphoid cells (Yan et al., FASEB J. 15: 1132-1138, 2001; Lynn et al., unpublished). However, in the ATM-deficient mice, treatment was fully successful only if the thiol redox modulators were applied early, before two weeks of age and before tumor development.
Whether amino phthalazinediones with other thiol redox modulators, which suppress growth of non-transformed ATM-deficient cells in vitro, can fully suppress tumors in vivo, without toxicity, has not been rigorously evaluated. Cross-linking redox modulators such as diamide, menadione, and oxidized phthalazines are known to stop cell growth, activate caspases, and initiate apoptosis in some tumor cells (Pias and Aw, FASEB J. 16: 781-790, 2002).

Structure (SMILES)	premature degeneration of cells and the thymomas (ATM-deficient mice)	other results
Nc1cccc2c([O-])n[nH]c(=O)c12.[Na+] [4-sodium amino phthalazinedione]	–	progress of the movement disorder with paralysis (MOMU-LV-Ts1 virus): significantly delay
CN(C)C(=O)/N=N/C(=O)N(C)C [Diamide]	–	opening of mitochondrial transmembrane pores [1]: completely opens mitochondrial transmembrane pores
CC(=O)N[C@@H](CS)C(=O)O [N-acetyl cysteine]	delay	–
O=C(O)CCCC[C@@H](S)CCS [dehydrolipoic acid]	delay	–
